# Measured values published in US20230255935A1, “ANTI-VIRAL COMPOUNDS AND METHODS FOR SCREENING SAME AND TREATING VIRAL INFECTIONS” (priority 2020, published 2023).
# Biological target: full-length MERS-CoV N protein (Middle East respiratory syndrome-related coronavirus, UniProt K9N4V7)
smiles,measurement,value
"CN(C)Cc1c[nH]c2ccc(OCc3ccccc3)cc12 [PSX-01, 5-benzyloxygramine]",radius of gyration (Rg) of N protein,65
